In BindingDB's records for doi:10.1021/jm201482p (University of Nebraska Medical Center, 2012) one finds IC50 data, which are given here for one molecule.

For orientation: IC50 means the midpoint of a concentration-inhibition curve.

The target in the assay is Cholinesterase (Homo sapiens, UniProt P06276). Kind of assay: Inhibition of human BChE after 30 mins by microplate reader method.
Cholinesterase, sequence (P06276 whole entry): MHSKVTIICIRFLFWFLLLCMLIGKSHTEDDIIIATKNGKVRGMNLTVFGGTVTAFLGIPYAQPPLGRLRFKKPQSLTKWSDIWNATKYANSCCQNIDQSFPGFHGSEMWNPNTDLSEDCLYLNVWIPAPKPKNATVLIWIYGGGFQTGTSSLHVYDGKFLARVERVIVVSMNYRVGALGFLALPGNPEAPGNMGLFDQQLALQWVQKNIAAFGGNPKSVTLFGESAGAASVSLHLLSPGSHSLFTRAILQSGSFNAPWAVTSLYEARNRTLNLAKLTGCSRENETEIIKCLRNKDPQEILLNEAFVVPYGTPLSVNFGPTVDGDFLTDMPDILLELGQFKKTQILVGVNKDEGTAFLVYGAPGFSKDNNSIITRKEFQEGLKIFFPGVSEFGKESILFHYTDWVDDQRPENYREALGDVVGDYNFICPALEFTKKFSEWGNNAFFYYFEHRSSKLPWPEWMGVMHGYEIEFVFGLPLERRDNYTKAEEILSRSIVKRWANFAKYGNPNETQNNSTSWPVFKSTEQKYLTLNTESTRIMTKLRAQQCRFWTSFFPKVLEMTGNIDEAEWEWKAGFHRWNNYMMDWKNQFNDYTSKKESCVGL

For the molecule `CC(C)(C)c1cc(C(C)(C)C)c2c(c1F)COP(=O)(OC[C@H]1O[C@@H](n3cc(I)c(=O)[nH]c3=O)C[C@@H]1O)O2` (stereo partly specified), the IC50 is greater than 60 mM.
